In patent US20090117613A1, “Method for redox reaction using an old yellow enzyme” (priority 2007, published 2009):

Legend:
Assay type in all cases: binding
[1] = biological target: T1, Geobacillus kaustophilus Old Yellow Enzyme (GkOYE, YP—148185.1) mutant H164A/H167A (Geobacillus kaustophilus, UniProt Q5KXG9, H164A/H167A); assay: Titration of GkOYE double mutant H164A/H167A with pHBA
T1 construct: made in house; host or cells: E. coli DH5alpha
Excerpt: (§1) Mutants of GkOYE (Y28F, H164A, H167A; H164A/H167A; 2 clones each) were transformed into and expressed in E. coli DH5alpha.

[2] = biological target: T2, Geobacillus kaustophilus Old Yellow Enzyme (GkOYE, YP—148185.1) mutant Y28F (Geobacillus kaustophilus, UniProt Q5KXG9, Y28F); assay: Titration of GkOYE mutant Y28F with pHBA
T2 construct: made in house; host or cells: E. coli DH5alpha
T2 sequence (Q5KXG9 whole entry Y28F): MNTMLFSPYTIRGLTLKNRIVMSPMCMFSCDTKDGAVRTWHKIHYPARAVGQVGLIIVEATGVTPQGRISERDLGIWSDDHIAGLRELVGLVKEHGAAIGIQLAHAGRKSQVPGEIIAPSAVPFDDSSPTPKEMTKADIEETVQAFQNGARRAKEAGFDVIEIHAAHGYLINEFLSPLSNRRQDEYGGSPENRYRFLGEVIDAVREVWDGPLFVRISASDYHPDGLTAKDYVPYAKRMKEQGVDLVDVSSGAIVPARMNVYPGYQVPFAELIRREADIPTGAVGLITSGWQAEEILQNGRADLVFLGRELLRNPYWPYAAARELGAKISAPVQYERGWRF
Excerpt: as §1

[3] = biological target: T3, Geobacillus kaustophilus Old Yellow Enzyme (GkOYE, YP—148185.1) mutant H164A (Geobacillus kaustophilus, UniProt Q5KXG9, H164A); assay: Titration of GkOYE mutant H164A with pHBA
T3 construct: made in house; host or cells: E. coli DH5alpha
T3 sequence (Q5KXG9 whole entry H164A): as the sequence (Q5KXG9 whole entry Y28F) above, with F28Y, H164A counted along it
Excerpt: as §1

[4] = biological target: T4, Geobacillus kaustophilus Old Yellow Enzyme (GkOYE, YP—148185.1), wild type (Geobacillus kaustophilus, UniProt Q5KXG9); assay: Titration of wild type GkOYE with pHBA
T4 construct: made in house; host or cells: E. coli DH5α
T4 sequence (Q5KXG9 1-340): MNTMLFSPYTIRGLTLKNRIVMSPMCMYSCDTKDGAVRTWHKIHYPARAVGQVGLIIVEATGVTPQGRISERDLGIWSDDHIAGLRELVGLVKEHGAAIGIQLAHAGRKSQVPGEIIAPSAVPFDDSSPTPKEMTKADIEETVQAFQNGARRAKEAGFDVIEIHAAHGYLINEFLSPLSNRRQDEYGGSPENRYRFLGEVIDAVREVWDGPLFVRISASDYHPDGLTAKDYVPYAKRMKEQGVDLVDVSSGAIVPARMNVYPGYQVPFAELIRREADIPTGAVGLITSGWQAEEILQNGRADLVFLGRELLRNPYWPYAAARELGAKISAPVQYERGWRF
Excerpt: as §1

[5] = biological target: T5, Geobacillus kaustophilus Old Yellow Enzyme (GkOYE, YP—148185.1) mutant H167A (Geobacillus kaustophilus, UniProt Q5KXG9, H167A); assay: Titration of GkOYE mutant H167A with pHBA
T5 construct: made in house; host or cells: E. coli DH5alpha
T5 sequence (Q5KXG9 whole entry H167A): as the sequence (Q5KXG9 whole entry Y28F) above, with F28Y, H167A counted along it
Excerpt: as §1

T1 sequence (Q5KXG9 whole entry H164A/H167A): as the sequence (Q5KXG9 whole entry Y28F) above, with F28Y, H164A, H167A counted along it

O=Cc1ccc(O)cc1 [pHBA]
Kd [1]: 1 to 10 mM | Kd [2]: 1 to 10 mM | Kd [3]: 1 to 10 mM | Kd [4]: 0.0031 mM | Kd [5]: 1 to 10 mM
